In one assay the target is T1, TYK2 JH2 (Homo sapiens, UniProt P29597).
T1 construct: purchased DiscoverX (KINOMEscan KdELECT service); host or cells: E. coli BL21-derived (T7 phage display) or HEK-293
Put plainly: TYK2 JH2 binding assay (KINOMEscan KdELECT competitive binding). Conditions: TYK2 JH2 domain, DiscoverX KINOMEscan KdELECT (Assay A); read-out: Biochemical TYK2_DiscoverX_JH2_BND_Kd. A digest of the protocol: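 JH2-domain fragment, expressed as T7 phage tag in BL21-derived E. coli or DNA-tagged from HEK-293, competed with test compound against bead-immobilized biotinylated ligand in binding buffer (0.9% DMSO). 1 h shaking at room temperature; bound kinase eluted with 0.5 μM free ligand and quantified by qPCR. Kd from 11-point 3-fold dilutions.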

In assay [1] the test system is JAK1/TYK2 pSTAT5 (Tyr694/699) in THP-1 cell line. The experiment in a line: IFNa-stimulated JAK1/TYK2 pSTAT5 (Tyr694/699) inhibition cellular assay, AlphaLISA. In kind it is cell-based. Conditions: Homo sapiens; THP-1 cells, IFNa-stimulated, AlphaLISA (Assay B); read-out: Cellular_THP1_IFNa-pSTATS_TYK2. An outline of the steps:
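THP-1 cells (2e4/well in HBSS) were preincubated with compound (8 points, 6-fold steps from 10000 nM final) for 1 h at 37 °C, then stimulated with IFNa (added at 100 ng/mL) for 30 min. Lysate pSTAT5 was read by AlphaLISA at 615 nm. IC50 came from a 4-parameter fit with bottom 0 and Hill −1.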
Background: In Alpha technology, singlet oxygen from a donor bead excites a nearby acceptor bead.

T1 sequence (P29597 589-875 limits assumed): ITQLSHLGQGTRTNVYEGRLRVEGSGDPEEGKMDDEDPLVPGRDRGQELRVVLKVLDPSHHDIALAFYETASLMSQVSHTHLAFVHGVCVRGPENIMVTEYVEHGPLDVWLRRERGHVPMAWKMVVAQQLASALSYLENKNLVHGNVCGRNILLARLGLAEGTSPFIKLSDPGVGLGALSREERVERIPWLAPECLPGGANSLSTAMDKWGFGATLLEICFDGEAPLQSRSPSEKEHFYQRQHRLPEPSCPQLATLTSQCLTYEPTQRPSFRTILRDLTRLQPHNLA

On to `[2H]C([2H])([2H])Nc1ncc(-c2nc3cc(N4CCO[C@@H](C)C4)ccc3o2)c2cc(NC(=O)[C@H]3C[C@H]3C)ncc12` [Example 440, (1S,2R)-2-methyl-N-(8-((methyl-d3)amino)-5-(5-((S)-2-methylmorpholino)benzo[d]oxazol-2-yl)-2,7-naphthyridin-3-yl)cyclopropane-1-carboxamide], for which, on TYK2 JH2, the Kd is at most 100 nM. Moreover, the IC50 in assay [1] was at most 500 nM.

Take `[2H]C([2H])([2H])Nc1ncc(-c2nc3cc(N4CCO[C@H](C)C4)ccc3o2)c2cc(NC(=O)[C@H]3C[C@H]3C)ncc12` [Example 441, (1S,2R)-2-methyl-N-(8-((methyl-d3)amino)-5-(5-((R)-2-methylmorpholino)benzo[d]oxazol-2-yl)-2,7-naphthyridin-3-yl)cyclopropane-1-carboxamide]: at TYK2 JH2, the Kd was at most 100 nM. Further, the IC50 in assay [1] is at most 500 nM.

`[2H]C([2H])([2H])Nc1ncc(-c2nc3cc(N4CCOCC4)ccc3o2)c2cc(NC(=O)C3(F)CC3)ncc12` [Example 442, 1-fluoro-N-(8-((methyl-d3)amino)-5-(5-morpholinobenzo[d]oxazol-2-yl)-2,7-naphthyridin-3-yl)cyclopropane-1-carboxamide]: the Kd at TYK2 JH2 was at most 100 nM. The IC50 in assay [1] is at most 500 nM.

As to `[2H]C([2H])([2H])Nc1ncc(-c2nc3cc(N4CCOCC4)ccc3o2)c2cc(NC(=O)[C@H]3C[C@H]3C)ncc12` [Example 443, (1S,2R)-2-methyl-N-(8-((methyl-d3)amino)-5-(5-morpholinobenzo[d]oxazol-2-yl)-2,7-naphthyridin-3-yl)cyclopropane-1-carboxamide], at TYK2 JH2, the Kd was at most 100 nM. The IC50 in assay [1] is at most 500 nM.

As to `CNc1ncc(-c2nc3c(NC(C)=O)cccc3o2)c2cc(NC(=O)C3CC3)ncc12` [Example 444, N-(5-(4-acetamidobenzo[d]oxazol-2-yl)-8-(methylamino)-2,7-naphthyridin-3-yl)cyclopropanecarboxamide], on TYK2 JH2, the Kd was at most 100 nM. Besides, the IC50 in assay [1] is at most 500 nM.

On to `CNc1ncc(-c2nc3cc(-c4nc[nH]n4)ccc3o2)c2cc(NC(=O)C3CC3)ncc12` [Example 445, N-(5-(5-(1H-1,2,4-triazol-3-yl)benzo[d]oxazol-2-yl)-8-(methylamino)-2,7-naphthyridin-3-yl)cyclopropanecarboxamide], for which, at TYK2 JH2, the Kd is at most 100 nM. Further, the IC50 in assay [1] is at most 500 nM.

In the case of `CNc1ncc(-c2nc3cc(-n4c(=O)ccn4C)ccc3o2)c2cc(NC(=O)C3CC3)ncc12` [Example 446, N-(5-(5-(2-methyl-5-oxo-2,5-dihydro-1H-pyrazol-1-yl)benzo[d]oxazol-2-yl)-8-(methylamino)-2,7-naphthyridin-3-yl)cyclopropanecarboxamide], the Kd on TYK2 JH2 was at most 100 nM. In addition, the IC50 in assay [1] is above 500 nM.

`CNc1ncc(-c2nc3cc(N4CC5COCC(C4)N5C)ccc3o2)c2cc(NC(=O)C3CC3)ncc12` [Example 447, N-(5-(5-(9-methyl-3-oxa-7,9-diazabicyclo[3.3.1]nonan-7-yl)benzo[d]oxazol-2-yl)-8-(methylamino)-2,7-naphthyridin-3-yl)cyclopropanecarboxamide]: on TYK2 JH2, the Kd is at most 100 nM. In addition, in assay [1], the IC50 was at most 500 nM.

`CNc1ncc(-c2nc3cc(C4CCOCC4)ccc3o2)c2cc(NC(=O)C3CC3)ncc12` [Example 448, N-(8-(methylamino)-5-(5-(tetrahydro-2H-pyran-4-yl)benzo[d]oxazol-2-yl)-2,7-naphthyridin-3-yl)cyclopropanecarboxamide]: the Kd on TYK2 JH2 is at most 100 nM. Moreover, in assay [1], the IC50 is at most 500 nM.

On to `CNc1ncc(-c2nc3cc(N4CCOCC4)ccc3o2)c2cc(Nc3cc(C)nc(C)n3)ncc12` [Example 449, N^6-(2,6-dimethylpyrimidin-4-yl)-N^1-methyl-4-(5-morpholinobenzo[d]oxazol-2-yl)-2,7-naphthyridine-1,6-diamine], for which the Kd on TYK2 JH2 was at most 100 nM. For the same compound, the IC50 in assay [1] is at most 500 nM.

As for `CNc1ncc(-c2nc3cc(N4CCOCC4)ccc3o2)c2cc(NC(=O)NC3CC3)ncc12` [Example 450, 1-cyclopropyl-3-(8-(methylamino)-5-(5-morpholinobenzo[d]oxazol-2-yl)-2,7-naphthyridin-3-yl)urea], the Kd at TYK2 JH2 is at most 100 nM. For the same compound, in assay [1], the IC50 is at most 500 nM.

Consider `[2H]C([2H])([2H])Nc1ncc(-c2nc3cc(N4C5CCC4COC5)ccc3o2)c2cc(NC(=O)C3CC3)ncc12` [Example 453, N-(5-(5-(3-oxa-8-azabicyclo[3.2.1]octan-8-yl)benzo[d]oxazol-2-yl)-8-((methyl-d3)amino)-2,7-naphthyridin-3-yl)cyclopropanecarboxamide], for which the Kd on TYK2 JH2 was at most 100 nM. Further, the IC50 in assay [1] was at most 500 nM.

As to `[2H]C([2H])([2H])Nc1ncc(-c2nc3cc(OCC4CC4)ccc3o2)c2cc(NC(=O)C3CC3)ncc12` [Example 454, N-(5-(5-(cyclopropylmethoxy)benzo[d]oxazol-2-yl)-8-((methyl-d3)amino)-2,7-naphthyridin-3-yl)cyclopropanecarboxamide], on TYK2 JH2, the Kd is at most 100 nM. In addition, the IC50 in assay [1] was at most 500 nM.

`[2H]C([2H])([2H])Nc1ncc(-c2nc3cc(N4C5CCC4COC5)ccc3o2)c2cc(NC(=O)[C@H]3C[C@H]3C)ncc12` [Example 455, (1S,2R)—N-(5-(5-(3-oxa-8-azabicyclo[3.2.1]octan-8-yl)benzo[d]oxazol-2-yl)-8-((methyl-d3)amino)-2,7-naphthyridin-3-yl)-2-methylcyclopropane-1-carboxamide]: at TYK2 JH2, the Kd is at most 100 nM. Also, the IC50 in assay [1] is at most 500 nM.

In the case of `[2H]C([2H])([2H])Nc1ncc(-c2nc3cc(OCC4CC4)ccc3o2)c2cc(NC(=O)[C@H]3C[C@H]3C)ncc12` [Example 456, (1S,2R)—N-(5-(5-(cyclopropylmethoxy)benzo[d]oxazol-2-yl)-8-((methyl-d3)amino)-2,7-naphthyridin-3-yl)-2-methylcyclopropane-1-carboxamide], the Kd on TYK2 JH2 was at most 100 nM. Besides, the IC50 in assay [1] was at most 500 nM.

Consider `CCNc1ncc(-c2nc3cc(N4CC5CN(C)CC(C4)O5)ccc3o2)c2cc(NC(=O)C3CC3)ncc12` [Example 457, N-(8-(ethylamino)-5-(5-(7-methyl-9-oxa-3,7-diazabicyclo[3.3.1]nonan-3-yl)benzo[d]oxazol-2-yl)-2,7-naphthyridin-3-yl)cyclopropanecarboxamide], for which the Kd on TYK2 JH2 is at most 100 nM. Moreover, the IC50 in assay [1] is at most 500 nM.

Take `CCNc1ncc(-c2nc3cc(N4CCOCC4)ccc3o2)c2cc(NC(=O)C3CC3)ncc12` [Example 458, N-(8-(ethylamino)-5-(5-morpholinobenzo[d]oxazol-2-yl)-2,7-naphthyridin-3-yl)cyclopropanecarboxamide]: on TYK2 JH2, the Kd is at most 100 nM. In assay [1], the IC50 is at most 500 nM.

With `CCNc1ncc(-c2nc3cc(OC)ccc3o2)c2cc(NC(=O)C3CC3)ncc12` [Example 459, N-(8-(ethylamino)-5-(5-methoxybenzo[d]oxazol-2-yl)-2,7-naphthyridin-3-yl)cyclopropanecarboxamide], the Kd at TYK2 JH2 was at most 100 nM. Also, the IC50 in assay [1] was at most 500 nM.

For the compound `CNc1ncc(-c2nc3nc(C)ccc3o2)c2cc(NC(=O)C3CC3)ncc12` [Example 460, N-(8-(methylamino)-5-(5-methyloxazolo[4,5-b]pyridin-2-yl)-2,7-naphthyridin-3-yl)cyclopropanecarboxamide], the Kd at TYK2 JH2 is at most 100 nM. Also, in assay [1], the IC50 is at most 500 nM.

In the case of `CNc1ncc(-c2nc3cc(/C(C)=N\OC)ccc3o2)c2cc(NC(=O)C3CC3)ncc12` [Example 462, (Z)—N-(5-(5-(1-(methoxyimino)ethyl)benzo[d]oxazol-2-yl)-8-(methylamino)-2,7-naphthyridin-3-yl)cyclopropanecarboxamide], the Kd on TYK2 JH2 is at most 100 nM. In addition, the IC50 in assay [1] was at most 500 nM.

With `CNc1ncc(-c2nc3cc(/C(C)=N/OC)ccc3o2)c2cc(NC(=O)C3CC3)ncc12` [Example 463, (E)-N-(5-(5-(1-(methoxyimino)ethyl)benzo[d]oxazol-2-yl)-8-(methylamino)-2,7-naphthyridin-3-yl)cyclopropanecarboxamide], the Kd at TYK2 JH2 is at most 100 nM. Moreover, the IC50 in assay [1] was at most 500 nM.

As for `CNc1ncc(-c2nc3cc(-c4ncn(C)n4)ccc3o2)c2cc(NC(=O)C3CC3)ncc12` [Example 464, N-(5-(5-(1-methyl-1H-1,2,4-triazol-3-yl)benzo[d]oxazol-2-yl)-8-(methylamino)-2,7-naphthyridin-3-yl)cyclopropanecarboxamide], on TYK2 JH2, the Kd is at most 100 nM. The IC50 in assay [1] was at most 500 nM.

In the case of `[2H]C([2H])([2H])Nc1ncc(-c2nc3cc(N4CC(OC)C4)ccc3o2)c2cc(NC(=O)[C@H]3C[C@H]3C)ncc12` [Example 469, (1S,2R)—N-(5-(5-(3-methoxyazetidin-1-yl)benzo[d]oxazol-2-yl)-8-((methyl-d3)amino)-2,7-naphthyridin-3-yl)-2-methylcyclopropane-1-carboxamide], the Kd at TYK2 JH2 is at most 100 nM. Further, the IC50 in assay [1] was at most 500 nM.

As to `CNc1ncc(-c2nc3ccc(OC)cn3n2)c2cc(NC(=O)C3CC3)ncc12` [Example 470, N-(5-(6-methoxy-[1,2,4]triazolo[1,5-a]pyridin-2-yl)-8-(methylamino)-2,7-naphthyridin-3-yl)cyclopropanecarboxamide], the Kd at TYK2 JH2 was at most 100 nM. In addition, the IC50 in assay [1] was at most 500 nM.

These data come from patent US20240025906A1 (NEURON23, INC., priority 2022, published 2024).
